From paper PMC10818380, “Triphenylphosphonium Analogs of Short Peptide Related to Bactenecin 7 and Oncocin 112 as Antimicrobial Agents” (Pharmaceutics, 2024)
Read-outs that look alike come from different tables or passages of the source. Square brackets hold non-standard residues; d marks the D form. Peptide text beside a SMILES is read from it. * marks the point of attachment. X2 = c1ccc([P+](CCCCCCCCCCN*)(c2ccccc2)c2ccccc2)cc1; X1 = c1ccc([P+](CCN*)(c2ccccc2)c2ccccc2)cc1

What was measured:
[1] = system: E. coli JW5503 (∆tolC) (KanS) pDualrep2; test: pDualrep2 double-reporter agar plate test; type: cell-based; conditions: 1 µL of 10 mM solution on agar plate
Experimental: The “pDualrep2” system was used to evaluate the mechanism of the antimicrobial action of the synthesized compounds. This system is based on the hypersensitive strain E. coli JW5503 (∆tolC) (KanS) transformed with the “pDualrep2” plasmid, which allows one to sort out suppressors of protein synthesis or SOS response inducers. Briefly, 1 µL of 10 mM water solutions of Bac(1–10), Bac(1–10, R/Y), Bac(1–10, R/Y)-Cn-TPP, TPP-C10-Bac(1–10, R/Y), and Onc112 were applied onto the agar plate that already contained a layer of the reporter strain E. coli JW5503 (∆tolC) (KanS) pDualrep2, and then the plate was incubated overnight at 37 °C. The agar plate was scanned using the ChemiDoc^TM Imaging System (Bio-Rad Laboratories, Hercules, CA, USA), containing two channels, “Cy3-blot” (553/574 nm; green pseudocolor) for Turbo Red Fluorescent Protein (TurboRFP) detection and “Cy5-blot” (588/633 nm; red pseudocolor) for Katushka2S fluorescence. […] Levofloxacin (LEV; 50 μg/mL, 1 μL) and erythromycin (ERY; 5 mg/mL, 1 μL) were utilized as positive controls for DNA and protein synthesis inhibitors, respectively.

[2] = system: E. coli SQ171 ΔtolC (A2059G) and JW5503 (∆tolC) (KanS) ermC; test: Antibacterial activity on agar plates, macrolide-resistant strains; type: cell-based; conditions: Figure 3
Experimental: Antibiotic activity was also evaluated against the following strains: E. coli JW5503 ΔtolC (KanS) ermC, modified with the plasmid pKH80 [59], providing resistance to erythromycin due to the expression of ErmC methyltransferase; E. coli SQ171 ΔtolC transformed with the pAM552 plasmid; E. coli SQ171 ΔtolC modified with the pAM552 plasmid with A2059G substitution in the 23S rRNA; E. coli JW1052 ΔmdtH; E. coli JW0912 ΔompF; and E. coli JW0368 ΔsbmA [57]. The procedure was performed as described previously in [33]. In short, Petri dishes filled with LB solid medium containing a selective antibiotic and 1.5% agar were covered with the tested strains. After that, 1 µL of 10 mM water solutions of Bac(1–10), Bac(1–10, R/Y), Bac(1–10, R/Y)-Cn-TPP, TPP-C10-Bac(1–10, R/Y), and Onc112, LEV (25 μg/mL) in water, and ERY (5 mg/mL and 50 mg/mL) in DMSO were applied onto the agar plates. After overnight incubation at 37 °C, the plates were scanned using the ChemiDoc^TM Imagining System (Bio-Rad Laboratories, Hercules, CA, USA) in three channels (Cy2, Cy3, and Cy5). The obtained images were processed in the Image Lab^TM software (Version 6.0.1, Bio-Rad).

70S E. coli ribosome = test: Competition-binding assay, displacement of BODIPY-Bac(1–10), fluorescence anisotropy; conditions: read-out: apparent dissociation constant (KD)
Experimental: 70S ribosomes were isolated from E. coli MRE600 cells according to a published procedure. The binding of BODIPY-Bac(1–10) to 70S E. coli ribosomes was performed according to the following procedure. BODIPY-Bac(1–10) (16 nM) was incubated with ribosomes (from 0.5 nM to 2000 nM) for 2 h at 26 °C in a buffer containing 20 mM of HEPES-KOH (pH 7.5), 50 mM of NH4Cl, 10 mM of Mg(CH3COO)2, 4 mM of β-mercaptoethanol, and 0.05% Tween-20. The binding affinities of peptides 1 and 2, their TPP analogs 3–5, as well as the control compounds for the E. coli ribosome were analyzed via a competition-binding assay using fluorescently labeled BODIPY-Bac(1–10) or BODIPY-ERY, as described before in [38, 54]. The fluorescent compound (16 nM) was mixed with ribosomes (84 nM for BODIPY-Bac(1–10) and 46 nM for BODIPY-ERY) in the buffer. Solutions of the tested compounds were added to the obtained complexes to final concentrations ranging from 0.01 to 100 µM. The mixtures were incubated for 2 h at 26 °C, and then the values of fluorescence anisotropy were measured with a VICTOR X5 Multilabel Plate Reader (PerkinElmer, Waltham, MA, USA) using a 384-well plate. The excitation wavelength was 485 nm, and the emission wavelength was 535 nm. From the data obtained, apparent dissociation constants were calculated.

A549 = test: cells
Experimental: The cytotoxicity of the substances under study was tested using the MTT (3-(4,5-dimethylthiazol-2-yl)-2,5-diphenyltetrazolium bromide) assay with some modifications. The detailed procedure for the MTT assay is given in the Supplementary Materials (Section S5).
Two thousand five hundred cells per well for the MCF7, HEK293T, and A549 cell lines or 4000 cells per well for the VA13 cell line were plated in 135 µL of DMEM-F12 media with 10% FBS (both Gibco, Waltham, MA, USA) in a 96-well plate and were incubated in a 5% CO2 incubator for the first 16 h, without treatment. Then 15 µL of media-DMSO solutions of the tested substances were added to the cells (the final DMSO concentrations in the media were 1% or less), and the cells were treated for 72 h with 25 nM–50 µM (eight dilutions) of the tested substances (triplicate each). Serial dilutions of DMSO and doxorubicin were used as controls. The MTT reagent (Paneco LLC, Moscow, Russia) was then added to the cells at a final concentration of 0.5 g/L (10× stock solution in PBS was used) and incubated for 2.5 h at 37 °C in the incubator under an atmosphere of 5%
CO2. The MTT solution was then discarded, and 140 µL of DMSO (PharmaMed LLC, Krasnodar, Russia) was added. The plates were swayed on a shaker (60 rpm) to dissolve the formazan. The absorbance was measured using the VICTOR X5 Multilabel Plate Reader (PerkinElmer, Wa l th a m, MA, USA) at a wavelength of 565 nm (in order to measure formazan concentration). The resu l ts were used to construct a dose-response graph and to estimate IC50 values.
Figure S11.The dependencies of viability of cells after treatment by tested compounds.
(1 picture or pasted object on this page, not shown here)

[3] = read-out: IC50 (50% inhibition of viability of cells), A549, 72 h, MTT

## CC[C@H](C)[C@H](NC(=O)[C@H](CCCNC(=N)N)NC(=O)[C@@H](N)CCCNC(=N)N)C(=O)N[C@@H](CCCNC(=N)N)C(=O)N1CCC[C@H]1C(=O)N[C@@H](CCCNC(=N)N)C(=O)N1CCC[C@H]1C(=O)N1CCC[C@H]1C(=O)N[C@@H](Cc1ccc(O)cc1)C(=O)N[C@@H](CC(C)C)C(=O)NCC[P+](c1ccccc1)(c1ccccc1)c1ccccc1 [Compound 3, Bac(1–10, R/Y)-C2-TPP] (H-RRIRPRPPYL-X1; N-terminus assumed)
[1]
  inhibitory effect on growth of bacterial cells: demonstrated an inhibitory effect on the growth of bacterial cells
  reporter induction (Katushka2S red pseudocolor = protein synthesis inhibition): red pseudocolor reporter induction was observed
[2]
  bacterial growth inhibition in macrolide-resistant E. coli strains: showed bacterial-growth-inhibiting activity
70S E. coli ribosome; CI (α = 0.05)
  Kd: 260 ± 30 nM
A549; [3]
  IC50: > 50000 nM

## CC[C@H](C)[C@H](NC(=O)[C@H](CCCNC(=N)N)NC(=O)[C@@H](N)CCCNC(=N)N)C(=O)N[C@@H](CCCNC(=N)N)C(=O)N1CCC[C@H]1C(=O)N[C@@H](CCCNC(=N)N)C(=O)N1CCC[C@H]1C(=O)N1CCC[C@H]1C(=O)N[C@@H](Cc1ccc(O)cc1)C(=O)N[C@@H](CC(C)C)C(=O)NCCCCCCCCCC[P+](c1ccccc1)(c1ccccc1)c1ccccc1 [Compound 4, Bac(1–10, R/Y)-C10-TPP] (H-RRIRPRPPYL-X2; N-terminus assumed)
[1]
  inhibitory effect on growth of bacterial cells: demonstrated an inhibitory effect on the growth of bacterial cells
  reporter induction (Katushka2S red pseudocolor = protein synthesis inhibition): red pseudocolor reporter induction was observed
[2]
  bacterial growth inhibition in macrolide-resistant E. coli strains: showed bacterial-growth-inhibiting activity
70S E. coli ribosome; CI (α = 0.05)
  Kd: 250 ± 40 nM
A549; [3]
  IC50: 9200 ± 900 nM

## CC[C@H](C)[C@H](NC(=O)[C@@H](CCCNC(=N)N)NC(=O)[C@H](CCCNC(=N)N)NC(=O)[C@@H]1CCCN1C(=O)[C@@H]1CCCN1C(=O)[C@H](CCCNC(=N)N)NC(=O)[C@@H]1CCCN1C(=O)[C@H](CCCNC(=N)N)NC(=O)[C@@H]1CCCN1C(=O)[C@H](CC(C)C)NC(=O)[C@H](Cc1ccc(O)cc1)NC(=O)[C@@H]1CCCN1C(=O)[C@@H]1CCCN1C(=O)[C@H](CCCCN)NC(=O)[C@H](CC(=O)O)NC(=O)[C@@H](N)C(C)C)C(=O)N[C@@H](Cc1ccc(O)cc1)C(=O)N[C@@H](CC(N)=O)C(=O)N[C@H](CCCNC(=N)N)C(N)=O [Onc112, reference compound] (H-VDKPPYLPRPRPPR[dR]IYN[dR]-NH2; N-terminus assumed)
[1]
  reporter induction (Katushka2S red pseudocolor = protein synthesis inhibition): red pseudocolor reporter induction was observed
[2]
  bacterial growth inhibition in macrolide-resistant E. coli strains: showed activity against resistant E. coli bacteria comparable to that demonstrated in the wild type
70S E. coli ribosome; Figure S3B
  Kd: 3 ± 1 nM
A549; 72 h
  IC50: > 50000 nM
